Experiment: Pre-bronchodilator FEV1 and percent predicted FEV1 by spirometry, change from baseline
Type: in vivo, human
Description: Spirometry is a standard test to measure patients' lung function.
The primary endpoint was the proportion of patients with LOAC. The key secondary endpoint for the study was change in pre-bronchodilator FEV1 from baseline at EOT.
Reversibility is defined as an increase of the absolute FEV1 after administration of bronchodilator and is measured by spirometry as postbronchodilator increase in FEV1 in percent of the prebronchodilator FEV1. After spirometry for measuring prebronchodilator FEV1, participants were to receive 2-4 puffs of albuterol/salbutamol or levalbuterol/levosalbutamol from a primed MDI. The postbronchodilator spirometry may have been repeated several times within 30 minutes after administration of bronchodilator. Alternatively, and only if it was consistent with usual office practice (to be documented), reversibility may have been performed using inhalation of nebulized albuterol/salbutamol or levalbuterol/levosalbutamol.
Secondary endpoints included pre-bronchodilator FEV1 change from baseline at EOT, ACQ-5 score change from baseline, and AQLQ score change from baseline. Other secondary and exploratory endpoints are described in Table 2.

[1] = 400 mg BID, Week 12, before LOAC and OCS use, as observed, mITT
[2] = 400 mg BID, Week 12, observed/LOCF imputed, mITT
[3] = 400 mg BID, Week 12, on-site conventional spirometry as observed, mITT
[4] = 400 mg BID, Week 12, reduced model, mITT
[5] = 400 mg BID, Week 16, before LOAC and OCS use, as observed, mITT
[6] = 400 mg BID, Week 16, on-site conventional spirometry as observed, mITT
[7] = 400 mg TID, Week 12, 1 exacerbation within 2 years
[8] = 400 mg TID, Week 12, 2 exacerbations within 2 years
[9] = 400 mg TID, Week 12, Eastern Europe
[10] = 400 mg TID, Week 12, Latin America
[11] = 400 mg TID, Week 12, age <45 years
[12] = 400 mg TID, Week 12, age ≥45 years
[13] = 400 mg TID, Week 12, asthma onset age <12 years
[14] = 400 mg TID, Week 12, asthma onset age <18 years
[15] = 400 mg TID, Week 12, asthma onset age ≥12-<18 years
[16] = 400 mg TID, Week 12, asthma onset age ≥18-<40 years
[17] = 400 mg TID, Week 12, asthma onset age ≥18 years
[18] = 400 mg TID, Week 12, asthma onset age ≥40 years
[19] = 400 mg TID, Week 12, atopic medical conditions: No
[20] = 400 mg TID, Week 12, atopic medical conditions: Yes
[21] = 400 mg TID, Week 12, background ICS dose High
[22] = 400 mg TID, Week 12, background ICS dose Medium
[23] = 400 mg TID, Week 12, baseline ACQ-5 >2
[24] = 400 mg TID, Week 12, baseline ACQ-5 ≤2
[25] = 400 mg TID, Week 12, baseline BMI <25 kg/m^2
[26] = 400 mg TID, Week 12, baseline BMI ≥25-<30 kg/m^2
[27] = 400 mg TID, Week 12, baseline BMI ≥30 kg/m^2
[28] = 400 mg TID, Week 12, baseline FEV1 <2.1955 L (median)
[29] = 400 mg TID, Week 12, baseline FEV1 reversibility <12%
[30] = 400 mg TID, Week 12, baseline FEV1 reversibility ≥12%
[31] = 400 mg TID, Week 12, baseline FEV1 ≥2.1955 L (median)
[32] = 400 mg TID, Week 12, baseline FeNO <25 ppb
[33] = 400 mg TID, Week 12, baseline FeNO <35 ppb
[34] = 400 mg TID, Week 12, baseline FeNO ≥25 ppb

CC(C)(C=C(C#N)C(=O)N1CCC[C@@H](n2nc(-c3ccc(Oc4ccccc4)cc3F)c3c(N)ncnc32)C1)N1CCN(C2COC2)CC1 (mixture of isomers) [rilzabrutinib, (R)-2-[3-[4-amino-3-(2-fluoro-4-phenoxy-phenyl)pyrazolo[3,4-d]pyrimidin-1-yl]piperidine-1-carbonyl]-4-methyl-4-[4-(oxetan-3-yl)piperazin-1-yl]pent-2-enenitrile]
Pre-bronchodilator FEV1 change from baseline, median [1]: -0.04 L
Pre-bronchodilator FEV1 percent change from baseline, mean [1]: −2.63%
Pre-bronchodilator FEV1 percent change from baseline, median [1]: −2.04%
Change from baseline in pre-bronchodilator FEV1, Mean [2]: -0.04 L
Change from baseline in pre-bronchodilator FEV1, Median [2]: -0.02 L
Pre-bronchodilator FEV1, Mean [2]: 2.02 L
Pre-bronchodilator FEV1, Median [2]: 1.88 L
Pre-bronchodilator FEV1, mean [2]: 2.02 L
Pre-bronchodilator FEV1, median [2]: 1.88 L
Pre-bronchodilator FEV1 change from baseline, LS Mean [2]: -0.07 L
Pre-bronchodilator FEV1 change from baseline, LS Mean Diff vs. placebo [2]: 0.01 L
Pre-bronchodilator FEV1 change from baseline, Mean [2]: -0.04 L
Pre-bronchodilator FEV1 change from baseline, median [2]: -0.02 L
Pre-bronchodilator FEV1, mean [3]: 1.97 L
Pre-bronchodilator FEV1, median [3]: 1.82 L
Pre-bronchodilator FEV1 change from baseline, Mean [3]: -0.03 L
Pre-bronchodilator FEV1 change from baseline, median [3]: -0.05 L
Pre-bronchodilator FEV1 percent change from baseline, mean [3]: −3.27%
Pre-bronchodilator FEV1 percent change from baseline, median [3]: −2.70%
Change from baseline in pre-bronchodilator FEV1, LS Mean [4]: -0.07 L
Change from baseline in pre-bronchodilator FEV1, LS Mean diff vs. placebo [4]: 0.01 L
Pre-bronchodilator FEV1, mean [5]: 2.30 L
Pre-bronchodilator FEV1, median [5]: 2.01 L
Pre-bronchodilator FEV1 change from baseline, Mean [5]: 0.29 L
Pre-bronchodilator FEV1 change from baseline, median [5]: 0.28 L
Pre-bronchodilator FEV1 percent change from baseline, mean [5]: 13.96%
Pre-bronchodilator FEV1 percent change from baseline, median [5]: 15.23%
Pre-bronchodilator FEV1, mean [6]: 2.30 L
Pre-bronchodilator FEV1, median [6]: 2.01 L
Pre-bronchodilator FEV1 change from baseline, Mean [6]: 0.29 L
Pre-bronchodilator FEV1 change from baseline, median [6]: 0.28 L
Pre-bronchodilator FEV1 percent change from baseline, mean [6]: 13.96%
Pre-bronchodilator FEV1 percent change from baseline, median [6]: 15.23%
Pre-bronchodilator FEV1 change from baseline, LS Mean [7]: -0.14 L
Pre-bronchodilator FEV1 change from baseline, LS Mean Diff vs. placebo [7]: -0.13 L
Pre-bronchodilator FEV1 change from baseline, Mean [7]: -0.16 L
Pre-bronchodilator FEV1 change from baseline, LS Mean [8]: -0.08 L
Pre-bronchodilator FEV1 change from baseline, LS Mean Diff vs. placebo [8]: 0.06 L
Pre-bronchodilator FEV1 change from baseline, Mean [8]: -0.16 L
Pre-bronchodilator FEV1 change from baseline, Mean (400 mg TID, Week 12, >2 exacerbations within 2 years): 0.01 L
Pre-bronchodilator FEV1 change from baseline, LS Mean [9]: -0.18 L
Pre-bronchodilator FEV1 change from baseline, LS Mean Diff vs. placebo [9]: -0.08 L
Pre-bronchodilator FEV1 change from baseline, Mean [9]: -0.18 L
Pre-bronchodilator FEV1 change from baseline, LS Mean [10]: -0.08 L
Pre-bronchodilator FEV1 change from baseline, LS Mean Diff vs. placebo [10]: -0.12 L
Pre-bronchodilator FEV1 change from baseline, Mean [10]: -0.08 L
Pre-bronchodilator FEV1 change from baseline, Mean (400 mg TID, Week 12, Western Countries): -0.18 L
Pre-bronchodilator FEV1 change from baseline, LS Mean [11]: -0.24 L
Pre-bronchodilator FEV1 change from baseline, LS Mean Diff vs. placebo [11]: -0.18 L
Pre-bronchodilator FEV1 change from baseline, Mean [11]: -0.24 L
Pre-bronchodilator FEV1 change from baseline, LS Mean [12]: -0.04 L
Pre-bronchodilator FEV1 change from baseline, LS Mean Diff vs. placebo [12]: -0.01 L
Pre-bronchodilator FEV1 change from baseline, Mean [12]: -0.08 L
Pre-bronchodilator FEV1 change from baseline, LS Mean [13]: -0.34 L
Pre-bronchodilator FEV1 change from baseline, LS Mean Diff vs. placebo [13]: -0.28 L
Pre-bronchodilator FEV1 change from baseline, Mean [13]: -0.25 L
Pre-bronchodilator FEV1 change from baseline, LS Mean [14]: -0.25 L
Pre-bronchodilator FEV1 change from baseline, LS Mean Diff vs. placebo [14]: -0.27 L
Pre-bronchodilator FEV1 change from baseline, Mean [14]: -0.18 L
Pre-bronchodilator FEV1 change from baseline, LS Mean [15]: 0.05 L
Pre-bronchodilator FEV1 change from baseline, LS Mean Diff vs. placebo [15]: -0.40 L
Pre-bronchodilator FEV1 change from baseline, Mean [15]: -0.01 L
Pre-bronchodilator FEV1 change from baseline, LS Mean [16]: -0.18 L
Pre-bronchodilator FEV1 change from baseline, LS Mean Diff vs. placebo [16]: -0.08 L
Pre-bronchodilator FEV1 change from baseline, Mean [16]: -0.17 L
Pre-bronchodilator FEV1 change from baseline, LS Mean [17]: -0.10 L
Pre-bronchodilator FEV1 change from baseline, LS Mean Diff vs. placebo [17]: -0.02 L
Pre-bronchodilator FEV1 change from baseline, Mean [17]: -0.14 L
Pre-bronchodilator FEV1 change from baseline, LS Mean [18]: 0.01 L
Pre-bronchodilator FEV1 change from baseline, LS Mean Diff vs. placebo [18]: 0.06 L
Pre-bronchodilator FEV1 change from baseline, Mean [18]: -0.07 L
Pre-bronchodilator FEV1 change from baseline, LS Mean [19]: -0.15 L
Pre-bronchodilator FEV1 change from baseline, LS Mean Diff vs. placebo [19]: -0.11 L
Pre-bronchodilator FEV1 change from baseline, Mean [19]: -0.18 L
Pre-bronchodilator FEV1 change from baseline, LS Mean [20]: -0.12 L
Pre-bronchodilator FEV1 change from baseline, LS Mean Diff vs. placebo [20]: -0.04 L
Pre-bronchodilator FEV1 change from baseline, Mean [20]: -0.09 L
Pre-bronchodilator FEV1 change from baseline, LS Mean [21]: -0.13 L
Pre-bronchodilator FEV1 change from baseline, LS Mean Diff vs. placebo [21]: -0.07 L
Pre-bronchodilator FEV1 change from baseline, Mean [21]: -0.13 L
Pre-bronchodilator FEV1 change from baseline, LS Mean [22]: -0.15 L
Pre-bronchodilator FEV1 change from baseline, LS Mean Diff vs. placebo [22]: -0.10 L
Pre-bronchodilator FEV1 change from baseline, Mean [22]: -0.18 L
Pre-bronchodilator FEV1 change from baseline, LS Mean [23]: -0.15 L
Pre-bronchodilator FEV1 change from baseline, LS Mean Diff vs. placebo [23]: -0.16 L
Pre-bronchodilator FEV1 change from baseline, Mean [23]: -0.17 L
Pre-bronchodilator FEV1 change from baseline, LS Mean [24]: -0.12 L
Pre-bronchodilator FEV1 change from baseline, LS Mean Diff vs. placebo [24]: -0.01 L
Pre-bronchodilator FEV1 change from baseline, Mean [24]: -0.10 L
Pre-bronchodilator FEV1 change from baseline, LS Mean [25]: -0.19 L
Pre-bronchodilator FEV1 change from baseline, LS Mean Diff vs. placebo [25]: -0.16 L
Pre-bronchodilator FEV1 change from baseline, Mean [25]: -0.21 L
Pre-bronchodilator FEV1 change from baseline, LS Mean [26]: -0.11 L
Pre-bronchodilator FEV1 change from baseline, LS Mean Diff vs. placebo [26]: -0.05 L
Pre-bronchodilator FEV1 change from baseline, Mean [26]: -0.14 L
Pre-bronchodilator FEV1 change from baseline, LS Mean [27]: -0.11 L
Pre-bronchodilator FEV1 change from baseline, LS Mean Diff vs. placebo [27]: -0.07 L
Pre-bronchodilator FEV1 change from baseline, Mean [27]: -0.14 L
Pre-bronchodilator FEV1 change from baseline, LS Mean [28]: -0.03 L
Pre-bronchodilator FEV1 change from baseline, LS Mean Diff vs. placebo [28]: -0.09 L
Pre-bronchodilator FEV1 change from baseline, Mean [28]: -0.05 L
Pre-bronchodilator FEV1 change from baseline, LS Mean [29]: -0.16 L
Pre-bronchodilator FEV1 change from baseline, LS Mean Diff vs. placebo [29]: -0.12 L
Pre-bronchodilator FEV1 change from baseline, Mean [29]: -0.18 L
Pre-bronchodilator FEV1 change from baseline, LS Mean [30]: -0.01 L
Pre-bronchodilator FEV1 change from baseline, LS Mean Diff vs. placebo [30]: -0.02 L
Pre-bronchodilator FEV1 change from baseline, Mean [30]: 0.00 L
Pre-bronchodilator FEV1 change from baseline, LS Mean [31]: -0.22 L
Pre-bronchodilator FEV1 change from baseline, LS Mean Diff vs. placebo [31]: -0.09 L
Pre-bronchodilator FEV1 change from baseline, Mean [31]: -0.21 L
Pre-bronchodilator FEV1 change from baseline, LS Mean [32]: -0.16 L
Pre-bronchodilator FEV1 change from baseline, LS Mean Diff vs. placebo [32]: -0.12 L
Pre-bronchodilator FEV1 change from baseline, Mean [32]: -0.19 L
Pre-bronchodilator FEV1 change from baseline, LS Mean [33]: -0.14 L
Pre-bronchodilator FEV1 change from baseline, LS Mean Diff vs. placebo [33]: -0.09 L
Pre-bronchodilator FEV1 change from baseline, Mean [33]: -0.18 L
Pre-bronchodilator FEV1 change from baseline, LS Mean [34]: -0.09 L
Pre-bronchodilator FEV1 change from baseline, LS Mean Diff vs. placebo [34]: -0.04 L
Pre-bronchodilator FEV1 change from baseline, Mean [34]: -0.09 L
Pre-bronchodilator FEV1 change from baseline, LS Mean (400 mg TID, Week 12, baseline FeNO ≥35 ppb): -0.07 L

Reference: patent US20260345619A1 (Principia Biopharma Inc., priority 2023, published 2026)
